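All cell lines were grown in 96-well plates and treated with compound for 48 hours. GI50 = concentration required for 50% inhibition of growth. TGI: total growth inhibition.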
Assays:
Experiment in all cases: DTP human tumour cell line panel, 48 h; in the data active means GI50 below about 0.43 µM; inactive means the rest
[1] = test system: 786-0 renal
[2] = test system: A498 renal
[3] = test system: A549 NSCLC
[4] = test system: ACHN renal
[5] = test system: BT-549 breast
[6] = test system: CAKI-1 renal
[7] = test system: CCRF-CEM leukemia
[8] = test system: COLO 205 colon
[9] = test system: DU-145 prostate
[10] = test system: EKVX NSCLC
[11] = test system: HCC-2998 colon
[12] = test system: HCT-116 colon
[13] = test system: HCT-15 colon
[14] = test system: HL-60(TB) leukemia
[15] = test system: HOP-62 NSCLC
[16] = test system: HOP-92 NSCLC
[17] = test system: HS 578T breast
[18] = test system: HT29 colon
[19] = test system: IGROV1 ovarian
[20] = test system: K-562 leukemia
[21] = test system: KM12 colon
[22] = test system: LOX IMVI melanoma
[23] = test system: M14 melanoma
[24] = test system: MALME-3M melanoma
[25] = test system: MCF7 breast
[26] = test system: MDA-MB-231 breast
[27] = test system: MDA-MB-435
[28] = test system: MOLT-4 leukemia
[29] = test system: NCI-H226 lung
[30] = test system: NCI-H23 lung
[31] = test system: NCI-H460 lung
[32] = test system: NCI-H522 lung
[33] = test system: NCI/ADR-RES ovarian
[34] = test system: OVCAR-3 ovarian
[35] = test system: OVCAR-4 ovarian
[36] = test system: OVCAR-5 ovarian
[37] = test system: OVCAR-8 ovarian
[38] = test system: PC-3 prostate
[39] = test system: RPMI-8226 leukemia
[40] = test system: RXF 393 renal
[41] = test system: SF-268 CNS
[42] = test system: SF-295 CNS
[43] = test system: SF-539 CNS
[44] = test system: SK-MEL-2 melanoma
[45] = test system: SK-MEL-28 melanoma
[46] = test system: SK-MEL-5 melanoma
[47] = test system: SK-OV-3 ovarian
[48] = test system: SN12C renal
[49] = test system: SNB-19 CNS
[50] = test system: SNB-75 CNS
[51] = test system: SR leukemia
[52] = test system: SW-620 colon
[53] = test system: T-47D breast
[54] = test system: TK-10 renal
[55] = test system: U251 CNS
[56] = test system: UACC-257 melanoma
[57] = test system: UACC-62 melanoma
[58] = test system: UO-31 renal

c1ccc2nc3c(cc2c1)Sc1cc2ccccc2[n+]2c1N3CC2
63.9 µM: TGI [31]
54.9 µM: TGI [40]
inactive: GI50 [1] 43 µM | GI50 [2] 34.1 µM | GI50 [3] 11.9 µM | GI50 [4] > 100 µM | GI50 [5] 19.1 µM | GI50 [6] 64.5 µM | GI50 [7] 26.8 µM | GI50 [8] 3.57 µM | GI50 [9] 53.9 µM | GI50 [10] 21 µM | GI50 [11] 18.5 µM | GI50 [12] 30.8 µM | GI50 [13] > 100 µM | GI50 [14] 32.5 µM | GI50 [15] 20.8 µM | GI50 [16] 27.9 µM | GI50 [17] 18.3 µM | GI50 [18] 33.8 µM | GI50 [19] 22.8 µM | GI50 [20] 14 µM | GI50 [21] 11 µM | GI50 [22] 41.3 µM | GI50 [23] 16.2 µM | GI50 [24] 4.17 µM | GI50 [25] 8.67 µM | GI50 [26] 31.6 µM | GI50 [27] 21.1 µM | GI50 [28] 22.1 µM | GI50 [29] 45 µM | GI50 [30] 21.9 µM | GI50 [31] 20.3 µM | GI50 [32] 26.7 µM | GI50 [33] > 100 µM | GI50 [34] 21.2 µM | GI50 [35] 24.7 µM | GI50 [36] > 100 µM | GI50 [37] 25.3 µM | GI50 [38] 27.4 µM | GI50 [39] 15.6 µM | GI50 [40] 13.7 µM | GI50 [41] 23.6 µM | GI50 [42] 65.7 µM | GI50 [43] 35.9 µM | GI50 [44] 17.6 µM | GI50 [45] 20.8 µM | GI50 [46] 3.66 µM | GI50 [47] > 100 µM | GI50 [48] 21.5 µM | GI50 [49] 19.7 µM | GI50 [50] 26.9 µM | GI50 [51] 13.5 µM | GI50 [52] 32.5 µM | GI50 [53] 15 µM | GI50 [54] 36.4 µM | GI50 [55] 24 µM | GI50 [56] 11.6 µM | GI50 [57] 13.5 µM | GI50 [58] > 100 µM
91.9 µM: TGI [49]
45 µM: TGI [23]
28.8 µM: TGI [57]
20 µM: TGI [46]
40.3 µM: TGI [21]
25.5 µM: TGI [8]
65.7 µM: TGI [27]
85.1 µM: TGI [17]
64.3 µM: TGI [11]
64.9 µM: TGI [53]
78.1 µM: TGI [15]
> 100 µM: TGI [1] | TGI [2] | TGI [3] | TGI [4] | TGI [5] | TGI [6] | TGI [7] | TGI [9] | TGI [10] | TGI [12] | TGI [13] | TGI [14] | TGI [16] | TGI [18] | TGI [19] | TGI [20] | TGI [22] | TGI [25] | TGI [26] | TGI [28] | TGI [29] | TGI [30] | TGI [32] | TGI [33] | TGI [34] | TGI [35] | TGI [36] | TGI [37] | TGI [38] | TGI [39] | TGI [41] | TGI [42] | TGI [43] | TGI [47] | TGI [48] | TGI [50] | TGI [51] | TGI [52] | TGI [54] | TGI [55] | TGI [58]
83.9 µM: TGI [45]
23.3 µM: TGI [24]
34.8 µM: TGI [56]
43.9 µM: TGI [44]

From PubChem BioAssay (NCI)
